Assay results from US6680313B2, “Carbapenum derivatives” (Meiji Seika Kaisha, Ltd., priority 2000, dated 2004).
In brackets after ≈: the same amount, converted by molar mass.

Columns and labels:
[1] = tested on: B. catarrhalis W-0500; test: Antimicrobial activities (MIC, agar dilution); type: cell-based; settings: Moraxella catarrhalis, W0500, Sensitivity Disk agar-N+5% Horse blood, 10^6 CFU/ml, read-out: minimum inhibiting concentrations (MIC)
Experimental: (§1) The minimum inhibiting concentrations (MIC, μg/ml) of representative compounds, among the novel carbapenem derivatives of the present invention, to various pathogenic bacteria were measured in accordance with the method described in CHEMOTHERAPY, vol. 16, No. 1, 99, 1968. The culture medium for the measurement is Sensitivity Disk agar-N+5% Horse blood, and the amount of inoculants used is 10^6 CFU/ml.

[2] = tested on: C. freundii GN 346; test: Antimicrobial activities (MIC, agar dilution); type: cell-based; settings: Citrobacter freundii, GN346, Sensitivity Disk agar-N+5% Horse blood, 10^6 CFU/ml, read-out: minimum inhibiting concentrations (MIC)
Experimental: as §1

[3] = tested on: E. coli NIHJ JC-2; test: Antimicrobial activities (MIC, agar dilution); type: cell-based; settings: Escherichia coli, NIHJJC2, Sensitivity Disk agar-N+5% Horse blood, 10^6 CFU/ml, read-out: minimum inhibiting concentrations (MIC)
Experimental: as §1

[4] = tested on: E. faecalis W-73; test: Antimicrobial activities (MIC, agar dilution); type: cell-based; settings: Enterococcus faecalis, W73, Sensitivity Disk agar-N+5% Horse blood, 10^6 CFU/ml, read-out: minimum inhibiting concentrations (MIC)
Experimental: as §1

[5] = tested on: E. hirae ATCC 8043; test: Antimicrobial activities (MIC, agar dilution); type: cell-based; settings: Enterococcus hirae, ATCC8043, Sensitivity Disk agar-N+5% Horse blood, 10^6 CFU/ml, read-out: minimum inhibiting concentrations (MIC)
Experimental: as §1

[6] = tested on: H. influenzae PRC 2; test: Antimicrobial activities (MIC, agar dilution); type: cell-based; settings: Haemophilus influenzae, PRC2, Sensitivity Disk agar-N+5% Horse blood, 10^6 CFU/ml, read-out: minimum inhibiting concentrations (MIC)
Experimental: as §1

[7] = tested on: H. influenzae PRC 44; test: Antimicrobial activities (MIC, agar dilution); type: cell-based; settings: Haemophilus influenzae, PRC44, Sensitivity Disk agar-N+5% Horse blood, 10^6 CFU/ml, read-out: minimum inhibiting concentrations (MIC)
Experimental: as §1

[8] = tested on: K. pneumoniae PC 1602; test: Antimicrobial activities (MIC, agar dilution); type: cell-based; settings: Klebsiella pneumoniae, PC1602, Sensitivity Disk agar-N+5% Horse blood, 10^6 CFU/ml, read-out: minimum inhibiting concentrations (MIC)
Experimental: as §1

[9] = tested on: P. vulgaris GN 7919; test: Antimicrobial activities (MIC, agar dilution); type: cell-based; settings: Proteus vulgaris, GN7919, Sensitivity Disk agar-N+5% Horse blood, 10^6 CFU/ml, read-out: minimum inhibiting concentrations (MIC)
Experimental: as §1

[10] = tested on: S. aureus 209P JC-1; test: Antimicrobial activities (MIC, agar dilution); type: cell-based; settings: Staphylococcus aureus, Sensitivity Disk agar-N+5% Horse blood, 10^6 CFU/ml, read-out: minimum inhibiting concentrations (MIC)
Experimental: as §1

[11] = tested on: S. aureus M 126; test: Antimicrobial activities (MIC, agar dilution); type: cell-based; settings: Staphylococcus aureus, M126; S. aureus M 126, Methicillin-hyperresistant strain; Sensitivity Disk agar-N+5% Horse blood; 10^6 CFU/ml; read-out: minimum inhibiting concentrations (MIC)
Experimental: as §1

[12] = tested on: S. epidermidis ATCC 14990; test: Antimicrobial activities (MIC, agar dilution); type: cell-based; settings: Staphylococcus epidermidis, ATCC14990, Sensitivity Disk agar-N+5% Horse blood, 10^6 CFU/ml, read-out: minimum inhibiting concentrations (MIC)
Experimental: as §1

[13] = tested on: S. pneumoniae PRC 9; test: Antimicrobial activities (MIC, agar dilution); type: cell-based; settings: Streptococcus pneumoniae, PRC9; S. pneumoniae PRC 9, Penicillin-hyperresistant strain; Sensitivity Disk agar-N+5% Horse blood; 10^6 CFU/ml; read-out: minimum inhibiting concentrations (MIC)
Experimental: as §1

[14] = tested on: mice (ICR, male); test: Acute toxicity test; type: in vivo; settings: intravenous, 2000 mg/kg, three mice
Experimental: The compound of Example 5 according to the present invention was intraveneously administered at a dose of 2000 mg/kg to mice (ICR, male) (one group consisting of three mice).

| Structure (SMILES) | MIC [1] | MIC [2] | MIC [3] | MIC [4] | MIC [5] | MIC [6] | MIC [7] | MIC [8] | MIC [9] | MIC [10] | MIC [11] | MIC [12] | MIC [13] | acute toxicity: survival [14] |
| --- | --- | --- | --- | --- | --- | --- | --- | --- | --- | --- | --- | --- | --- | --- |
| C[C@@H](O)[C@H]1C(=O)N2C(C(=O)O)=C(SCCN=CN)C[C@H]12 [Compound A, Imipenem, reference compound] | 0.05 µg/mL (≈ 0.167 µM) | 0.2 µg/mL (≈ 0.668 µM) | 0.1 µg/mL (≈ 0.334 µM) | 0.78 µg/mL (≈ 2.61 µM) | 0.78 µg/mL (≈ 2.61 µM) | 0.78 µg/mL (≈ 2.61 µM) | 12.5 µg/mL (≈ 41.8 µM) | 0.2 µg/mL (≈ 0.668 µM) | 0.1 µg/mL (≈ 0.334 µM) | < 0.025 µg/mL | 25 µg/mL (≈ 83.5 µM) | < 0.025 µg/mL | 0.2 µg/mL (≈ 0.668 µM) | – |
| C[C@@H](O)[C@H]1C(=O)N2C(C(=O)[O-])=C(c3cn4cncc4s3)[C@H](C)[C@H]12.[Na+] [Compound B, Sodium (1S,5R,6S)-6-((1R)-1-hydroxyethyl)-2-(imidazo[5,1-b]thiazol-2-yl)-1-methyl-1-carbapen-2-em-3-carboxylate, reference compound] | 0.1 µg/mL | 1.56 µg/mL | 0.2 µg/mL | 0.39 µg/mL | 0.39 µg/mL | < 0.025 µg/mL | 0.2 µg/mL | 0.1 µg/mL | 0.1 µg/mL | < 0.025 µg/mL | 6.25 µg/mL | < 0.025 µg/mL | 0.2 µg/mL | – |
| C[C@@H](O)[C@H]1C(=O)N2C(C(=O)[O-])=C(c3cn4cnc(SCCN)c4s3)[C@H](C)[C@H]12.[Na+] [Example 5, Sodium (1S,5R,6S)-2-[7-(2-aminoethyl)thioimidazo[5,1-b]thiazol-2-yl]-6-((1R)-1-hydroxyethyl)-1-methyl-1-carbapen-2-em-3-carboxylate] | 0.05 µg/mL | 1.56 µg/mL | 0.1 µg/mL | 0.2 µg/mL | 0.39 µg/mL | 0.05 µg/mL | 0.2 µg/mL | 0.1 µg/mL | 0.2 µg/mL | < 0.025 µg/mL | 1.56 µg/mL | < 0.025 µg/mL | 0.05 µg/mL | all the mice survived |

Further compounds by falling MIC [1], results first:

| MIC [1] | MIC [2] | MIC [3] | MIC [4] | MIC [5] | MIC [6] | MIC [7] | MIC [8] | MIC [9] | MIC [10] | MIC [11] | MIC [12] | MIC [13] | Structure (SMILES) | acute toxicity: survival [14] |
| --- | --- | --- | --- | --- | --- | --- | --- | --- | --- | --- | --- | --- | --- | --- |
| 0.1 µg/mL | – | 1.56 µg/mL | 0.2 µg/mL | 0.2 µg/mL | < 0.025 µg/mL | 0.025 µg/mL | 1.56 µg/mL | 0.78 µg/mL | < 0.025 µg/mL | 0.78 µg/mL | < 0.025 µg/mL | 0.05 µg/mL | C[C@@H](O)[C@H]1C(=O)N2C(C(=O)[O-])=C(c3cn4cnc(SCCF)c4s3)[C@H](C)[C@H]12.[Na+] [Example 14, Sodium (1S,5R,6S)-2-[7-(2-fluoroethyl)thioimidazo[5,1-b]thiazol-2-yl]-6-((1R)-1-hydroxyethyl)-1-methyl-1-carbapen-2-em-3-carboxylate] | – |
| 0.05 µg/mL | 1.56 µg/mL | 0.2 µg/mL | 0.2 µg/mL | 0.2 µg/mL | 0.05 µg/mL | 0.1 µg/mL | 0.39 µg/mL | 0.39 µg/mL | < 0.025 µg/mL | 0.78 µg/mL | < 0.025 µg/mL | 0.05 µg/mL | C[C@@H](O)[C@H]1C(=O)N2C(C(=O)[O-])=C(c3cn4cnc(SCCNC(=N)N)c4s3)[C@H](C)[C@H]12.[Na+] [Example 20, Sodium (1S,5R,6S)-2-[7-(2-guanidinoethyl)thioimidazo[5,1-b]thiazol-2-yl]-6-((1R)-1-hydroxyethyl)-1-methyl-1-carbapen-2-em-3-carboxylate] | – |
